Test results taken from patent US11160862B2, “Nanoemulsion adjuvant for nasal mucosa and preparation method thereof” (NATIONAL HEALTH RESEARCH INSTITUTES, priority 2017, dated 2021).

System: B16-F10/OVA cells
Test: Lung metastasis after intranasal melanoma vaccination, pathological observation of lung
Type: in vivo
Conditions: C57BL/6 mice inoculated with B16-F10/OVA cells, intranasal 100 μg/dose once a week for 3 weeks, one week after final vaccination
Description: 6-week old female C57BL/6 mice were intravascularly inoculated with B16-F10/OVA cells (melanoma cells expressing OVA epitopes, 5×10^5 cells/mouse). One week later, mice were divided into 4 groups (n=6 per group): vaccinated with PBS, ovalbumin (OVA), OVA adjuvanted with 0.1% PELC and OVA adjuvanted with nanoPELC. The mice were intranasally vaccinated with PBS or OVA formulation (100 μg/dose) once a week for 3 weeks. One week after the final vaccination, some of the mice were sacrificed, and the lung was isolated for pathological observation.

ovalbumin
melanoma infection area in the lungs (lung metastasis): not as serious as the PBS group, but it still had a certain area
